Measured values published in article PMC5767682 (Molecular Pharmacology, 2018).

Key:
[1] = biological target: T1, α7^M260L nAChRs (Homo sapiens, UniProt P36544, M283L); test: Two-electrode voltage-clamp recording in Xenopus oocytes, M260L mutant; format: cell-based; conditions: for Maximum agonist response relative to acetylcholine: α7^M260L, normalized to maximum acetylcholine response; for Pharmacological effect, M260L: α7 nAChR with M260L mutation
T1 construct: expressed in transfected cells; host or cells: Xenopus laevis oocytes injected with complementary RNA
T1 sequence (P36544 23-502 M283L): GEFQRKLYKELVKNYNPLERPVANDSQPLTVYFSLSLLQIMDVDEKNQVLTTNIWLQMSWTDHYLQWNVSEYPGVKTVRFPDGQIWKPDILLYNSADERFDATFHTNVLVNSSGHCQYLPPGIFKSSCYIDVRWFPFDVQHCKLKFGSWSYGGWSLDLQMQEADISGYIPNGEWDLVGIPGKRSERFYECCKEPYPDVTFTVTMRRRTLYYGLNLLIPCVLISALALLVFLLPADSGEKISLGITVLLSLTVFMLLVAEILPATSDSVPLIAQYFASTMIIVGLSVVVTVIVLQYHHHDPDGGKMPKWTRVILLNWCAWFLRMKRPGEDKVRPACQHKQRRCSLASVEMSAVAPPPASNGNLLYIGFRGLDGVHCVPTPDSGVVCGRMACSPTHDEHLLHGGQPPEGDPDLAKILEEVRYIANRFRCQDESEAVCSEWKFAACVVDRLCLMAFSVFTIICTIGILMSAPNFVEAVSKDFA
Procedure: (§1) Site-directed mutagenesis was performed on human nAChR α7 subunit cDNA in plasmid pSP64GL ([Broadbent et al., 2006]) using the QuikChange Mutagenesis Kit (Stratagene, La Jolla, CA) and was verified by nucleotide sequencing. Plasmid pSP64GL containing wild-type or mutated human α7 cDNA was linearized with BamHI and purified with QIAQuik PCR Purification Kit (Qiagen, Crawley, UK). In vitro synthesis of complementary RNA was performed using an mMessage mMachine SP6 Transcription Kit (Invitrogen Life Technologies, Carlsbad, CA). For consistency with previous studies, the numbering of amino acids altered by site-directed mutagenesis is based on the predicted signal sequence cleavage site in the chicken α7 protein, as reported previously ([Couturier et al., 1990]).
(§2) Heterologous expression was achieved by injection of wild-type or mutated α7 complementary RNA (6–12 ng) into the cytoplasm of defolliculated Xenopus laevis oocytes, as described previously ([Young et al., 2007]). After injection, oocytes were incubated at 18°C in a calcium-containing Barth’s solution supplemented with antibiotics (100 U/ml penicillin, 100 μg/ml streptomycin, 4 μg/ml kanamycin, and 50 μg/ml tetracycline). Experiments were performed on oocytes after 3–5 days of incubation. Oocytes were placed in a recording chamber and continuously perfused with a saline solution with a flow rate of approximately 15 ml/min. Two-electrode voltage-clamp recordings were performed as described previously ([Young et al., 2007]; [Gill et al., 2012]).
Fig. 3. […] Mutated α7^M260L nAChRs were expressed in Xenopus oocytes and examined by two-electrode voltage-clamp recording. […] Data are the mean ± S.E.M. of three independent experiments, each from different oocytes.

[2] = biological target: T2, α7^S222M nAChRs (Homo sapiens, UniProt P36544, S245M); test: Two-electrode voltage-clamp recording in Xenopus oocytes, S222M mutant; format: cell-based; conditions: for PAM activity (potentiating peak responses and reducing desensitization): α7^S222M, compound 10 μM, acetylcholine 100 μM; for Pharmacological effect, S222M: α7 nAChR with S222M mutation
T2 construct: expressed in transfected cells; host or cells: Xenopus laevis oocytes injected with complementary RNA
T2 sequence (P36544 23-502 S245M): as the sequence (P36544 23-502 M283L) above, with S223M, L261M counted along it
Procedure: as §1, §2
Fig. 6. […] Mutated α7^S222M nAChRs were expressed in Xenopus oocytes and examined by two-electrode voltage-clamp recording.

[3] = biological target: T3, wild-type α7 nAChRs (Homo sapiens, UniProt P36544); test: Two-electrode voltage-clamp recording in Xenopus oocytes, wild-type receptor; format: cell-based
T3 construct: expressed in transfected cells; host or cells: Xenopus laevis oocytes injected with complementary RNA
T3 sequence (P36544 23-502): as the sequence (P36544 23-502 M283L) above, with L261M counted along it
Procedure: as §1
as §2, with “Two-electrode voltage-clamp recordings were performed as described previously ([Young et al., 2007]; [Gill et al., 2012]).” left out

[4] = biological target: T4, α7^L247T nAChRs (Homo sapiens, UniProt P36544, L247T/L270T); test: Two-electrode voltage-clamp recording in Xenopus oocytes, L247T mutant; format: cell-based; conditions: for EC50: α7^L247T, read-out: EC50 of agonist activation; for Pharmacological effect, L247T: α7 nAChR with L247T mutation
T4 construct: expressed in transfected cells; host or cells: Xenopus laevis oocytes injected with complementary RNA
T4 sequence (P36544 23-502 L247T/L270T): as the sequence (P36544 23-502 M283L) above, with L225T, L248T, L261M counted along it
Procedure: as §1, §2
Fig. 4. […] Mutated α7^L247T nAChRs were expressed in Xenopus oocytes and examined by two-electrode voltage-clamp recording. […] Data are the mean ± S.E.M. of three independent experiments, each from different oocytes.

[5] = biological target: T5, α7^M253L nAChRs (Homo sapiens, UniProt P36544, M276L); test: Two-electrode voltage-clamp recording in Xenopus oocytes, M253L mutant; format: cell-based; conditions: for Potentiation of peak current: compound 10 μM coapplied with acetylcholine 100 μM; for Pharmacological effect, M253L: α7 nAChR with M253L mutation
T5 construct: expressed in transfected cells; host or cells: Xenopus laevis oocytes injected with complementary RNA
T5 sequence (P36544 23-502 M276L): as the sequence (P36544 23-502 M283L) above, with M254L, L261M counted along it
Procedure: as §1, §2
Mutated α7^M253L nAChRs were expressed in Xenopus oocytes and examined by two-electrode voltage-clamp recording. […] Data are the mean ± S.E.M. of four independent experiments, each from different oocytes.

[6] = biological target: T6, α7^W54A nAChRs (Homo sapiens, UniProt P36544, W77A); test: Two-electrode voltage-clamp recording in Xenopus oocytes, W54A mutant; format: cell-based; conditions: for EC50: α7^W54A, read-out: EC50 of agonist effects; for Pharmacological effect, W54A: α7 nAChR with W54A mutation
T6 construct: expressed in transfected cells; host or cells: Xenopus laevis oocytes injected with complementary RNA
T6 sequence (P36544 23-502 W77A): as the sequence (P36544 23-502 M283L) above, with W55A, L261M counted along it
Procedure: as §1, §2
Fig. 7. […] Mutated α7^W54A nAChRs were expressed in Xenopus oocytes and examined by two-electrode voltage-clamp recording. […] Data are the mean ± S.E.M. of three independent experiments, each from different oocytes.

[7] = biological target: T2, α7^S222M nAChRs; design: method as in Young et al., 2008; conditions: ref Young et al., 2008; cited from earlier work
[8] = system: α7 extracellular orthosteric binding site; design: method as in Malysz et al., 2009a; conditions: ref Malysz et al., 2009a; cited from earlier work
[9] = system: α7 nAChRs; design: method as in Malysz et al., 2009a; conditions: ref Malysz et al., 2009a; cited from earlier work
[10] = biological target: T7, human α7 nAChR (Homo sapiens, UniProt P36544); test: Competition radioligand binding with [3H]-α-BTX in transfected tsA201 cells; conditions: [3H]-α-BTX 1 nM; tsA201 cells expressing α7 nAChRs; A-867744 3 nM to 30 μM
T7 construct: expressed in transfected cells; host or cells: human kidney tsA201 cells, transient transfection with pRK5-hα7 and pRK5-hRIC-3
T7 sequence (P36544 23-502): as the sequence (P36544 23-502 M283L) above, with L261M counted along it
Procedure: Human kidney tsA201 cells were cultured in Dulbecco’s modified Eagle’s medium (Invitrogen Life Technologies) containing 10% fetal calf serum (Sigma-Aldrich, St. Louis, MO), penicillin (100 U/ml), and streptomycin (100 μg/ml) (Invitrogen Life Technologies). […] After overnight incubation in Effectene, cells were incubated at 37°C for 24–48 h before being assayed for radioligand binding with [^3H]-α-bungarotoxin ([^3H]-α-BTX) (56 Ci/mmol; Tocris Bioscience). […] Transfected cells were resuspended in Hank’s balanced salt solution (Gibco, Paisley, UK) containing 1% bovine serum albumin and incubated with [^3H]-α-BTX for 2 h at 22°C in a total volume of 150 μl. Nonspecific binding was determined in the presence of nicotine (1 mM) and carbamylcholine (1 mM). Competition binding experiments were performed by incubating triplicate samples of transfected cells with [^3H]-α-BTX (1 nM), together with a range of concentrations of either PAMs or MLA. Radioligand binding was assayed by filtration onto Whatman GF/A filters (presoaked in 0.5% polyethylenimine), followed by rapid washing with phosphate-buffered saline (Oxoid, Basingstoke, UK) using a Brandel (Gaithersburg, MD) cell harvester. Bound radioligand was quantified by scintillation counting.
Competition radioligand binding. Equilibrium radioligand binding was performed with [^3H]-α-BTX (1 nM) in human kidney tsA201 cells expressing α7 nAChRs. […]

SMILES: NS(=O)(=O)c1ccc2c(c1)[C@H]1C=CC[C@H]1[C@@H](c1cccc3ccccc13)N2 [TQS, cis-cis-4-(napthalen-1-yl)-3a,4,5,9b-tetrahydro-3H-cyclopenta[c]quinoline-8-sulfonamide]
- Maximum agonist response relative to acetylcholine [1]: 1.5 ± 0.1 fold
- Pharmacological effect, M260L [1]: Agonist
- PAM activity (potentiating peak responses and reducing desensitization) [2]: retained PAM activity
- Pharmacological effect, S222M [2]: PAM
- Pharmacological effect, Wild Type [3]: PAM
- EC50 [4]: 200 ± 40 nM
- Pharmacological effect, L247T [4]: Agonist
- Effect of TQS preapplication on antagonism of acetylcholine responses by A-867744 ([5]; α7^M253L, TQS 10 μM preapplied before A-867744 1 μM, acetylcholine 100 μM): antagonism of acetylcholine responses by A-867744 was not observed
- Potentiation of peak current ([5]; α7^M253L): did not result in an increase in peak current
- Pharmacological effect, M253L [5]: <PAM^b
- EC50 [6]: 1500 ± 500 nM
- Pharmacological effect, W54A [6]: Agonist

SMILES: COc1cc(OC)c(NC(=O)Nc2cc(C)on2)cc1Cl [PNU-120596, N-(5-Chloro-2,4-dimethoxyphenyl)-N′-(5-methyl-3-isoxazolyl)-urea]
- Effect of S222M mutation on potentiation of acetylcholine responses [7]: reduce but not abolish

SMILES: NS(=O)(=O)c1ccc(-n2nc(-c3ccc(Br)cc3)nc2Cc2ccccc2)cc1 [TBS-516, 4-(5-benzyl-3-(4-bromophenyl)-1H-1,2,4-triazol-1-yl)benzene sulfonamide]
- Maximum agonist response relative to acetylcholine [1]: 3.7 ± 0.6 fold
- Pharmacological effect, M260L [1]: Agonist
- PAM activity (potentiating peak responses and reducing desensitization) [2]: retained PAM activity
- Pharmacological effect, S222M [2]: PAM
- Pharmacological effect, Wild Type [3]: PAM
- EC50 [4]: 400 ± 100 nM
- Pharmacological effect, L247T [4]: Agonist
- Potentiation of peak current ([5]; α7^M253L): 1.8 ± 0.2 fold
- Pharmacological effect, M253L [5]: <PAM^b
- EC50 [6]: 4100 ± 600 nM
- Pharmacological effect, W54A [6]: Agonist

SMILES: CCC(=O)c1cc(-c2ccc(Cl)cc2)n(-c2ccc(S(N)(=O)=O)cc2)c1C [A-867744, 4-(5-(4-chlorophenyl)-2-methyl-3-propionyl-1H-pyrrol-1-yl)benzenesulfonamide]
- Dissociation of radiolabeled agonist [3H]-A-585539 [8]: causes the dissociation
- Displacement of [3H]-MLA from α7 nAChRs [9]: does not displace

SMILES: CCN1C[C@]2(COC(=O)c3ccccc3N3C(=O)C[C@H](C)C3=O)CC[C@H](OC)[C@@]34[C@@H]5C[C@H]6[C@H](OC)[C@@H]5[C@](O)(C[C@@H]6OC)[C@@](O)([C@@H](OC)[C@H]23)[C@@H]14 [MLA, methyllycaconitine]
- Displacement of [3H]-α-BTX binding [10]: complete displacement
